ChEMBL document CHEMBL4828759, “Targeted methylation facilitates DNA double strand breaks and enhances cancer suppression: A DNA intercalating/methylating dual-action chimera Amonafidazene” (Eur J Med Chem, 2021)
Calls of active or inactive are those of the source. No cut-off for these calls is given here.

Key:
[1] = tested on: NCI-H1299; assay: Cytotoxicity against human NCI-H1299 cells assessed as cell viability measured after 96 hrs by XTT assay; assay type: functional, cell-based; conditions: NCI-H1299, 96 h
[2] = tested on: MDA-MB-238; assay: Inhibition of DNA Topoisomerase-2 in human […] cells assessed as generation of DNA double strand breaks measuring gamma-H2AX at 2 uM incubated for 24 hrs followed by drug washout and measured after 96 hrs by immunofluorescence assay; assay type: cell-based
[3] = tested on: MDA-MB-238; assay: Antitumour activity against human […] cells xenografted in athymic nude-Foxn 1nu mouse assessed as inhibition of tumour growth at 1.9 mg/kg, ip measured after 5 weeks; assay type: functional, organism-based
[4] = tested on: WM 266-4; assay: Cytotoxicity against human WM 266-4 cells assessed as cell viability measured after 96 hrs by XTT assay; assay type: functional, cell-based; conditions: WM 266-4, 96 h
[5] = tested on: A 172; assay: Cytotoxicity against human A 172 cells assessed as cell viability measured after 96 hrs by XTT assay; assay type: functional, cell-based; conditions: A 172, 96 h
[6] = tested on: MDA-MB-238; assay: Inhibition of DNA Topoisomerase-2 in human […] cells assessed as generation of DNA double strand breaks by measuring gamma-H2AX at 2 uM incubated for 24 hrs followed by drug washout and measured after 24 hrs by immunofluorescence assay; assay type: cell-based
[7] = tested on: MDA-MB-238; assay: Cytotoxicity against human […] cells assessed as cell viability measured after 96 hrs by XTT assay; assay type: functional, cell-based
[8] = tested on: DNA; assay: Induction of DNA methylation in human HCT-116 cells assessed as reduction of MGMT expression at 400 uM measured after 48 hrs by Western blot assay relative to control; assay type: functional, cell-based; parameters: scale not given: the % may be the effect or the level left
[9] = tested on: DNA; assay: Induction of DNA methylation in human HCT-116 cells assessed as reduction of MGMT expression at 200 uM measured after 48 hrs by Western blot assay relative to control; assay type: functional, cell-based; parameters: scale not given: the % may be the effect or the level left
[10] = tested on: MDA-MB-238; assay: Inhibition of DNA Topoisomerase-2 in human […] cells assessed as generation of DNA double strand breaks measuring gamma-H2AX at incubated for 24 hrs followed by drug washout and measured after 24 to 96 hrs by immunofluorescence assay; assay type: cell-based
[11] = tested on: MDA-MB-238; assay: Antitumour activity against human […] cells xenografted in athymic nude-Foxn 1nu mouse assessed as inhibition of tumour growth at 3.8 mg/kg, ip measured after 5 weeks; assay type: functional, organism-based
[12] = Drug metabolism in human MDA-MB-231 cells xenografted in athymic Balb/c mouse assessed as increase of free amonafide in tumor at 10 mg/kg, ip measured after 120 hrs by fluorescence based microscopic assay; assay type: ADME, organism-based; conditions: in vivo
[13] = Drug metabolism in human MDA-MB-231 cells assessed as increase of free amonafide in cell at 25 uM measured after 2 hrs by fluorescence based microscopic assay; assay type: ADME; conditions: mda-mb-231, 2 h

Structure (SMILES) | IC50 [1] [µM] | inhibition [2] | Activity [3] | IC50 [4] [µM] | IC50 [5] [µM] | inhibition [6] | IC50 [7] [µM] | Activity [8] [%] | Activity [9] [%] | inhibition [10] | Activity [11] | Drug metabolism [12] | Drug metabolism [13]
CN(C)CCN1C(=O)c2cccc3cc(N)cc(c23)C1=O [AMONAFIDE] | 8.84 | Active | Active | 6.92 | 23.8 | Active | 24.2 |  |  |  |  |  | 
COC(=O)N(C)/N=N/c1ccc(CO)cc1 | > 100 |  |  | > 100 | > 40 |  | > 100 | 48 | 75 |  |  |  | 
Cn1nnc2c(C(N)=O)ncn2c1=O [TEMOZOLOMIDE] | > 100 |  |  | > 100 | > 40 |  | > 100 | 57 | 93 | inactive |  |  | 
COC(=O)N(C)/N=N/c1ccc(COC(=O)Nc2cc3c4c(cccc4c2)C(=O)N(CCN(C)C)C3=O)cc1 | 1.79 | Active | Active | 3.79 | 2.73 | Active | 3.02 |  |  |  | Active | Metabolite_Detected | Metabolite_Detected
COC(=O)N(C)/N=N/c1ccc(COC(=O)Nc2ccc3c4c(cccc24)C(=O)N(CCN(C)C)C3=O)cc1 | 3.61 |  |  | 4.86 | 7.46 |  | 6.26 |  |  |  |  |  | 
